Results reported in ChEMBL document CHEMBL1201862, “PubChem BioAssay data set” (2004).
Blank lines part the entries; values can stand above or below the molecule they belong to. Calls of active or inactive are those of the source.

How the values were obtained:
Cytochrome P450 2C9 = Cytochrome P450 2C9 (Homo sapiens, UniProt P11712)
[1] = biological target: T1, Corticotropin-releasing factor receptor 2/Corticotropin-releasing factor-binding protein (Homo sapiens, UniProt P24387+Q13324); experiment: Dose Response confirmation of uHTS hits for small molecule antagonists of the CRF-binding protein and CRF-R2 receptor complex.; assay type: functional; details: read-out: IC50_Mean
T1 sequence (Q13324 whole entry): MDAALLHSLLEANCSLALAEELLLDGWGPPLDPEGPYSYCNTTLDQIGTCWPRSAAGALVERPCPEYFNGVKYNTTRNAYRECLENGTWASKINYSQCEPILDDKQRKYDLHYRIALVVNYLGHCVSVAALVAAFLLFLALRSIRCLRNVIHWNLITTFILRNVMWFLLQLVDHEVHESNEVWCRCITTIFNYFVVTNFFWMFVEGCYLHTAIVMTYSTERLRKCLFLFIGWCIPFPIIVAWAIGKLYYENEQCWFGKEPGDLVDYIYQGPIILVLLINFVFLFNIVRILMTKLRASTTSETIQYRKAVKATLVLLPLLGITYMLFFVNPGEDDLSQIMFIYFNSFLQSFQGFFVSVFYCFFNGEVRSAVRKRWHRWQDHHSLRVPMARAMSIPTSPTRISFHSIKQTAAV
T1 sequence (P24387 whole entry): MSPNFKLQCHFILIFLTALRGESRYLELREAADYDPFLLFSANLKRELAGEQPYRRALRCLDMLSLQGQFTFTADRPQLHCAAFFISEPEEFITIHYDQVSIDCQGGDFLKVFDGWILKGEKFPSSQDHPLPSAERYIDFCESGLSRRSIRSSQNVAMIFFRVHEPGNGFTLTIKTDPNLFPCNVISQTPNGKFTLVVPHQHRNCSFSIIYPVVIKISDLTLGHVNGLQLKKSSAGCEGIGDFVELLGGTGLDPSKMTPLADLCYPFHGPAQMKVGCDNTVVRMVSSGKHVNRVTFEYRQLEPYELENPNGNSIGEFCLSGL

[2] = biological target: T1, Corticotropin-releasing factor receptor 2/Corticotropin-releasing factor-binding protein; experiment: activators of CRF receptor 2 with binding protein – uHTS hits, confirmation (AID 602473); assay type: functional; details: read-out: EC50_Mean
Cytochrome P450 2C19 = Cytochrome P450 2C19 (Homo sapiens, UniProt P33261); experiment: Cytochrome panel assay with activity outcomes. Panel member name: p450-cyp2c19 Compounds with AC50 equal or less than 10 uM are considered active; assay type: functional
Chain of Cytochrome P450 2C19 (P33261 whole entry): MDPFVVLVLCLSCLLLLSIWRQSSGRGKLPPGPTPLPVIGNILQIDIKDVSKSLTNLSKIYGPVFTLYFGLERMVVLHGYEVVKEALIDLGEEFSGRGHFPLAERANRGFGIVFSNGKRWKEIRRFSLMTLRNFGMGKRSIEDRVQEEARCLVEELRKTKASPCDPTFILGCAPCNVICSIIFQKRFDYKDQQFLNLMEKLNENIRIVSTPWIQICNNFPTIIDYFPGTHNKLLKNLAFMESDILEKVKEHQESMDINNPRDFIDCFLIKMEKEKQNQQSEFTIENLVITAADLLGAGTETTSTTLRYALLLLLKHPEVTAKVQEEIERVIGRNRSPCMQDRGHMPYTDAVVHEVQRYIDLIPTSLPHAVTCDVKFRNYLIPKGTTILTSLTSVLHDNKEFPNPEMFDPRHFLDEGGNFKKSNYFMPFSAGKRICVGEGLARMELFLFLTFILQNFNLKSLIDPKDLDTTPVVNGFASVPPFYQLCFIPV

Cytochrome P450 1A2 = biological target: T2, Cytochrome P450 1A2 (Homo sapiens, UniProt P05177);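 further: PubChem cytochrome P450 panel assay, CYP1A2 panel member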
T2 sequence (P05177 whole entry): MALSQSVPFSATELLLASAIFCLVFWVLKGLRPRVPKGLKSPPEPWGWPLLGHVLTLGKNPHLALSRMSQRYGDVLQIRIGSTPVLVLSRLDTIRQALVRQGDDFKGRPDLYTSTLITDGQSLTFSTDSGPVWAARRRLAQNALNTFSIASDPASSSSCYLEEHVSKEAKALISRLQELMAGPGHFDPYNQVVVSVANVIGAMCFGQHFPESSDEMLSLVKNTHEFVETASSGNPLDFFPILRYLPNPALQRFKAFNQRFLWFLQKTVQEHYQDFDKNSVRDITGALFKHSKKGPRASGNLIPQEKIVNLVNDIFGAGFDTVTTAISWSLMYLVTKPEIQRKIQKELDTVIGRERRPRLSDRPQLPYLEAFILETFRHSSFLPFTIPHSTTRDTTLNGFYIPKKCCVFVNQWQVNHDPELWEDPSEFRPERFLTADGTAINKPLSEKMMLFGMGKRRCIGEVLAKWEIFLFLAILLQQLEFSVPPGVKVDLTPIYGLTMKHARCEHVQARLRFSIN

[3] = biological target: T3, Heat shock factor protein 1 (Mus musculus, UniProt P38532); experiment: inhibition of MG132-induced HSE-luciferase signal, confirmation, cell-based, NIH3T3, luminescence, dose retest (AID 2382); assay type: functional;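 further: NIH3T3 fibroblasts with HSF1-driven luciferase reporter stressed by proteasome inhibitor MG132; luminescence from HSF1-driven luciferase expression after 8 hours of MG132 stress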
T3 sequence (P38532 whole entry): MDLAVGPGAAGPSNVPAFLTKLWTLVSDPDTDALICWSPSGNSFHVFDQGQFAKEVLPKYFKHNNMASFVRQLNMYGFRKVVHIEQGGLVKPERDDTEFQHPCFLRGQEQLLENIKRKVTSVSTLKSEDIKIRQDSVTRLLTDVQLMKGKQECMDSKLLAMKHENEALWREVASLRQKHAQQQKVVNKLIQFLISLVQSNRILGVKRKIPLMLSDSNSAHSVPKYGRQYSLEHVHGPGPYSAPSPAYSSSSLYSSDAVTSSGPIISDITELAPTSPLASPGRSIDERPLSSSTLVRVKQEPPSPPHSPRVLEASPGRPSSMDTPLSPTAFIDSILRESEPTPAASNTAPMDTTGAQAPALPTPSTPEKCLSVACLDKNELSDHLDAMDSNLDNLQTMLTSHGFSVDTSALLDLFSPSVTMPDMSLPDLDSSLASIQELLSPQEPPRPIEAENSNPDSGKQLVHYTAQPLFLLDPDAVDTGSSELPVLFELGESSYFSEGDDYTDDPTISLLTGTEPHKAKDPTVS

Cytochrome P450 2D6 = Cytochrome P450 2D6 (Homo sapiens, UniProt P10635);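 further: CYP2D6 member of a cytochrome P450 panel assay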
Chain of Cytochrome P450 2D6 (P10635 whole entry): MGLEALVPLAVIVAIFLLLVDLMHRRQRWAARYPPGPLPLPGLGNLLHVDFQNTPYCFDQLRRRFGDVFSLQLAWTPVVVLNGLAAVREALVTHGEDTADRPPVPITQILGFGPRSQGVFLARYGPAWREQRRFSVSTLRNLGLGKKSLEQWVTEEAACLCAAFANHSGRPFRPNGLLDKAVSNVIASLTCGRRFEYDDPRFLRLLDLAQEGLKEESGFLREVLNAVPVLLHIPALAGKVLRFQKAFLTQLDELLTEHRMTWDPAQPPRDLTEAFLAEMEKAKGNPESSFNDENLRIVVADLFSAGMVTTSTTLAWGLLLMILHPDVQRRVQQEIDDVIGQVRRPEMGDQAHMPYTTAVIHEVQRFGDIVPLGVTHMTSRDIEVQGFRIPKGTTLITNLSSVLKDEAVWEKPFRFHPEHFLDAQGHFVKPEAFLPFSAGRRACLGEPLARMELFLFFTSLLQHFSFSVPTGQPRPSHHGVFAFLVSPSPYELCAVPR

[4] = biological target: T4, Rac GTPase-activating protein 1 (Homo sapiens, UniProt Q9H0H5); experiment: MgcRacGAP GTPase-activating activity inhibitors, confirmation, biochemical, ADP Hunter fluorescence, primary and confirmatory (AID 624330); assay type: functional
T4 sequence (Q9H0H5 whole entry): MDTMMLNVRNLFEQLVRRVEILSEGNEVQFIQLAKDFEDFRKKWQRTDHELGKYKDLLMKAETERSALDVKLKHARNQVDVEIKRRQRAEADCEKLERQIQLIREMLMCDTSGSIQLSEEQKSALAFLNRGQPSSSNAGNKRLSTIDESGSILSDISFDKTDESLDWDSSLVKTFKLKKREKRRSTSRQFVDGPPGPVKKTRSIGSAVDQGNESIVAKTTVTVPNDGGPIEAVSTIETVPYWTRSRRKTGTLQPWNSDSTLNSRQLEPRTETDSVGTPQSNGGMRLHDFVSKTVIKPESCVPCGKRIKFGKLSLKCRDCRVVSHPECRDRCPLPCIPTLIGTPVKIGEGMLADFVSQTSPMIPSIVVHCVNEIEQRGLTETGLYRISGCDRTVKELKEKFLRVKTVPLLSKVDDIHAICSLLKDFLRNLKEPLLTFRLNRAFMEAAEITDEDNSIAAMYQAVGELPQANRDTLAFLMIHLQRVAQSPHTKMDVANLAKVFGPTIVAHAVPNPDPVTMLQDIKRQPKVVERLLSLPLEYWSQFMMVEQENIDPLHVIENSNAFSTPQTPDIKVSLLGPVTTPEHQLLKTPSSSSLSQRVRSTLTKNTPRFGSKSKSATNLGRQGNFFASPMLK

Chain of Cytochrome P450 2C9 (P11712 whole entry): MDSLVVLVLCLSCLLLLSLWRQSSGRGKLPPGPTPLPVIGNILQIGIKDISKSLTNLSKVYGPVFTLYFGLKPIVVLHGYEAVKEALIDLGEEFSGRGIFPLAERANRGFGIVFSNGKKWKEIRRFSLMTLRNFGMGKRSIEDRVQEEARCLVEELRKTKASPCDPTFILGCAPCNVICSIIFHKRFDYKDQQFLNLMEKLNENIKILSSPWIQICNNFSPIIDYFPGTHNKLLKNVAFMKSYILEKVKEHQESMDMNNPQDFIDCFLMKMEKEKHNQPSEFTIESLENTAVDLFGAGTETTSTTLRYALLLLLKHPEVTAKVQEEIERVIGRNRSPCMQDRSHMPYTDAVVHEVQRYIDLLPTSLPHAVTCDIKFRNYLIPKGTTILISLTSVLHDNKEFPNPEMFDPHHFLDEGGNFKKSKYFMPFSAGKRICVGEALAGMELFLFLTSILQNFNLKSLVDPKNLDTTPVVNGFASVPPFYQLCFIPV

SMILES: CCn1cc(C2=NOC(C(=O)Nc3ccccc3C(=O)OC)C2)c(C)n1 (stereo not given)
IC50 [1]: > 47.1 µM (inactive)
EC50 [2]: > 53 µM (inactive)

SMILES: CCCS(=O)(=O)N1CCCC(C(=O)NCCCN2CCN(c3ccccc3F)CC2)C1 (stereo not given)
AC50 (Cytochrome P450 2C19; read-out: AC50): 39.8 µM (inconclusive)
AC50 (Cytochrome P450 2C9): 5.01 µM (inconclusive)

SMILES: Cc1cc(NC(=O)c2c([N+](=O)[O-])c(C)nn2C)no1
AC50 (Cytochrome P450 1A2): 39.8 µM (inconclusive)
AC50 (Cytochrome P450 2C19): inconclusive

SMILES: CC(C)CCNC(=O)CN(C(=O)CCC(=O)Nc1nccs1)c1ccc2c(c1)OCCO2
EC50 [3]: 5.9 µM (active)

SMILES: CC(=O)Nc1nn(C)c2nc(C)cc(C)c12
EC50 [3]: > 195 µM (not active)

SMILES: COc1cc(=O)n2c(n1)SCCC2
AC50 (Cytochrome P450 2C9): 31.6 µM (inconclusive)

SMILES: CC1CC(=O)Nc2cc([N+](=O)[O-])ccc2N1 (stereo not given)
EC50 [3]: > 195 µM (not active)

SMILES: COc1ccc(C(C)N2CC34C=CC(O3)C(C(=O)O)C4C2=O)cc1 (stereo not given)
EC50 [3]: > 195 µM (not active)

SMILES: Oc1c2c(nc3c(-c4ccccc4)cnn13)CCC2
AC50 (Cytochrome P450 2C19; read-out: AC50): 31.6 µM (inconclusive)
AC50 (Cytochrome P450 2C9): 22.4 µM (inconclusive)

SMILES: O=C1C2C3C=CC(C3)C2C(=O)N1CCCO (stereo not given)
IC50 [1]: > 47.1 µM (inactive)
EC50 [2]: > 53 µM (inactive)

SMILES: CCOC(=O)C1CCN(C(=O)c2n[nH]c(=O)c3ccccc23)CC1
IC50 [1]: > 47.1 µM (inactive)
EC50 [2]: > 53 µM (inactive)

Next, values leading:

AC50 (Cytochrome P450 2C9): 14.1 µM (inconclusive)
SMILES: Clc1cccc(Oc2cnc3ccccc3n2)c1

IC50 [1]: > 47.1 µM (inactive)
EC50 [2]: > 53 µM (inactive)
SMILES: Cn1c(=O)c(C(=O)NCc2ccccc2Cl)c(O)c2ccccc21

EC50 [3]: 0.328 µM (active)
SMILES: CN1CCN(c2nc(-c3ccc(C(C)(C)C)cc3)nc3ccccc23)CC1

AC50 (Cytochrome P450 2D6): 6.31 µM (inconclusive)
AC50 (Cytochrome P450 2C9): 7.94 µM (inconclusive)
SMILES: N=C1[C@@H](O)[C@]2(I)c3ccccc3N3C(=N)[C@H](O)[C@@H]4c5ccccc5N1[C@@H]4[C@@H]32

AC50 (Cytochrome P450 1A2): 17.8 µM (inconclusive)
AC50 (Cytochrome P450 2C19; read-out: AC50): 5.62 µM (inconclusive)
SMILES: CCN=C(S)NNC(=O)c1cccc(Br)c1

AC50 (Cytochrome P450 2C9): 14.1 µM (inconclusive)
SMILES: Cc1ccc2[nH]c(Cc3ccc(N)cc3)nc2c1

IC50 [1]: > 47.1 µM (inactive)
EC50 [2]: > 53 µM (inactive)
SMILES: NS(=O)(=O)c1ccc(NC(=O)CSc2nnc(COc3ccccc3Cl)n2C2CC2)cc1

EC50 [3]: > 195 µM (not active)
SMILES: Cc1cnc(C(=O)Nc2ccccc2-n2cccc2)cn1

EC50 [3]: > 195 µM (not active)
SMILES: N#C/C(=C/c1cccc(C(F)(F)F)c1)c1nc(CCN2C(=O)c3ccccc3C2=O)cs1

AC50 (Cytochrome P450 1A2): 15.8 µM (inconclusive)
AC50 (Cytochrome P450 2C19): inconclusive
SMILES: CN1CCN(c2ncc3nc(-c4ccc(Cl)cc4)c(=O)n(CCC#N)c3n2)CC1

IC50 [4]: 65 µM (active)
SMILES: COc1ccc2cc(OCC(=O)NNC(=O)Nc3ccc(F)cc3)ccc2c1

IC50 [1]: > 47.1 µM (inactive)
EC50 [2]: > 53 µM (inactive)
SMILES: Fc1cccc(NC(S)=NCc2ccc(Cl)cc2)c1
